Measurements taken from patent EP4800012A1, “COMPOUND ACTING AS PARP7 INHIBITOR” (Dovetree Medicines Unus, Inc., priority 2023, dated 2025).

Experiments:
[1] = biological target: T1, PARP7 (Homo sapiens, UniProt Q7Z3E1); assay: PARP7 TR-FRET binding inhibition (displacement of probe RBN011147)
T1 construct: purchased BPS 80527
T1 sequence (Q7Z3E1 1-657): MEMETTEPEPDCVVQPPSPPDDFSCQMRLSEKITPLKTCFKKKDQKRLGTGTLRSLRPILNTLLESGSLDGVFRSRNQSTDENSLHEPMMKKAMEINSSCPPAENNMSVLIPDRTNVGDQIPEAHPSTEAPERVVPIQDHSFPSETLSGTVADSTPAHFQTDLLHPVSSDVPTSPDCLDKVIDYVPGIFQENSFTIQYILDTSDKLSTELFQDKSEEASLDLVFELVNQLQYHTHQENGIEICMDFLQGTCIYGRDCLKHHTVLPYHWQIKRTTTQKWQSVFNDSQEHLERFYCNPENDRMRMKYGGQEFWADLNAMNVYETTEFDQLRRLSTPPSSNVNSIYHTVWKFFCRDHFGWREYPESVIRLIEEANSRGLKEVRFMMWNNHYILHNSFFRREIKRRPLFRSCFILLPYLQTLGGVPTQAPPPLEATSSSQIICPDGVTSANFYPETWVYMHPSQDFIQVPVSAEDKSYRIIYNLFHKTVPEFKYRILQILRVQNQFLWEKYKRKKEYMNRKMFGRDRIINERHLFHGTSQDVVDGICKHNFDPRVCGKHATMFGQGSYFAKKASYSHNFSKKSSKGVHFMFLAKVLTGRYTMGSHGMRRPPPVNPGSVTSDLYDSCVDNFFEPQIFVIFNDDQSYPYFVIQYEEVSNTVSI
Procedure: The ability of the compound to substitute the probe RBN011147 (Wigle et al., 2020, Cell Chemical Biology 27, 877-887) was tested by a TR-FRET method, and IC50 was calculated to evaluate the binding ability of the compound to PARP7. […]

[2] = biological target: T1, PARP7; assay: Inhibition of the compound on PARP7 protein activity (ADP-ribosylation, chemiluminescence); format: biochemical
[3] = test system: NCI-H1373 cells; assay: Inhibition on NCI-H1373 cell proliferation (Cell-Titer-Glo); format: cell-based; settings: Homo sapiens, 144 h; NCI-H1373 cells, incubation for 6 days, Cell-Titer-Glo; read-out: NCI-H1373 cell proliferation inhibition IC50
Procedure: The inhibitory effect of the compound on PARP7 was evaluated by testing the inhibitory effect of the compound on NCI-H1373 cell proliferation.
NCI-H1373 cells (ATCC, CRL-5866) were cultured in a complete medium, namely, a RPMI-1640 medium (Gibco, 22400089) containing 10% fetal bovine serum (Corning, 35-081-CV).
Negative control wells and positive control wells were added with 50 nL DMSO (Sigma, D2650), respectively.
In "Day 0" detection plate, NCI-H1373 cells were seeded at a density of 600 cells/well (50 µL) in a complete medium into the Day 0 test wells of a 384-well detection plate (Grenier, 781091). Then, 25 µL of Cell-Titer-Glo reagent (Promega, G7573) was added to each well, followed by centrifugation at 1000 rpm at room temperature for 1 minute and incubation at room temperature under shaded conditions for 10 min. Chemiluminescence signals were collected using an Envision (Perkin Elmer, EnVision 2105) to obtain the average value of the Day 0 test values.
In "compound detection plate", NCI-H1373 cells were seeded at a density of 600 cells/well (50 µL) in a complete medium into the negative control wells and the compound detection wells of a 384-well detection plate (Grenier, 781091), and 50 µL of cell culture medium was added to the positive control wells, followed by centrifugation at 1000 rpm at room temperature for 1 minute and placing in a cell incubator at 37°C, 5% CO2 for incubation for 6 days. […] Chemiluminescence signals were collected using an Envision (Perkin Elmer, EnVision 2105). The test values for each compound well, negative control well, and positive control well were obtained.
The proliferation inhibition ratio formula is as follows: [formula]
The average value of the negative control = the average value of the Day 6 test values of each negative control well minus the average value of the Day 0 test values
The average value of the positive control = the average value of the Day 6 test values of each positive control well
The average value of the compound test = (the Day 6 test value of compound test well 1 + the Day 6 test value of compound test well 2)/2 - the average value of the Day 0 test values

[4] = TR-FRET, Biotin-labeled probe RBN011147, read-out: PARP7 binding inhibition IC50
[5] = Histone H1 coated plate, Biotin-Labeled NAD+, 2 h at room temperature, chemiluminescence, read-out: PARP7 activity inhibition IC50

Row | Compound | IC50 [1, 4] [nM] | IC50 [2, 5] [nM] | IC50 [3] [nM] | IC50 [1] [nM] | IC50 [2] [nM] | IC50 ([1]; read-out: PARP7 binding inhibition IC50, TR-FRET, Biotin-labeled probe RBN011147) [nM] | IC50 ([2]; read-out: PARP7 activity inhibition IC50, Histone H1 coated plate, Biotin-Labeled NAD+, 2 h at room temperature, chemiluminescence) [nM]
1 | CC(CCNC(=O)c1cccc2c1[nH]c(=O)n2-c1ncc(C(F)(F)F)cn1)Nc1cn[nH]c(=O)c1C(F)(F)F (stereo not drawn) [Example 6] | 30 to 100 | 10 to 30 | > 3000 |  |  |  | 
2 | CC(CCCN1C(=O)c2ccc(-c3ncc(C(F)(F)F)cn3)cc2C1=O)Nc1cn[nH]c(=O)c1C(F)(F)F (stereo not drawn) [Example 9] | < 10 | < 3 | > 3000 |  |  |  | 
3 | Cc1c(CCC(=O)Nc2ccc(-c3ncc(C(F)(F)F)cn3)cn2)c[nH]c(=O)c1C(F)(F)F [Example 13] | 30 to 100 | < 3 | > 3000 |  |  |  | 
4 | COc1cnc(-c2ccc(C(=O)NCCCC(C)Nc3cn[nH]c(=O)c3C(F)(F)F)cc2)s1 (stereo not drawn) [Example 22] | 10 to 30 | < 3 | 1000 to 3000 |  |  |  | 
5 | CC(CCCNC(=O)c1cnc(-c2ncc(C(F)F)s2)cn1)Nc1cn[nH]c(=O)c1C(F)(F)F (stereo not drawn) [Example 25] | < 10 | < 3 | 1000 to 3000 |  |  |  | 
6 | COc1cnc(-c2ccc(C(=O)NCCCC(C)Nc3cc[nH]c(=O)c3C(F)(F)F)c(F)c2)s1 (stereo not drawn) [Example 27] | 10 to 30 | < 3 | > 3000 |  |  |  | 
7 | CC(CCCNC(=O)c1ccc(-c2ncc(C(F)F)s2)cn1)Nc1cn[nH]c(=O)c1C#N (stereo not drawn) [Example 28] | > 100 | 30 to 100 | > 3000 |  |  |  | 
8 | Cc1cnc(-c2cnc(C(=O)NCCCC(C)Nc3cc[nH]c(=O)c3C(F)(F)F)cn2)s1 (stereo not drawn) [Example 30] | 30 to 100 | 3 to 10 | > 3000 |  |  |  | 
9 | CC(CCCNC(=O)c1cnc(-c2ncc(C(F)(F)F)s2)cn1)Nc1cc[nH]c(=O)c1C(F)(F)F (stereo not drawn) [Example 31] | 10 to 30 | < 3 | > 3000 |  |  |  | 
10 | CC(CCCNC(=O)c1cnc(-c2ncc(C(F)F)s2)cn1)Nc1cc[nH]c(=O)c1C(F)(F)F (stereo not drawn) [Example 32] | 10 to 30 | < 3 | > 3000 |  |  |  | 
11 | Cc1cc(NC(C)CCCN(C)C(=O)c2cnc(-c3ncc(C(F)(F)F)cn3)cn2)c(C#N)c(=O)[nH]1 (stereo not drawn) [Example 34] | > 100 | 30 to 100 | > 3000 |  |  |  | 
12 | Cc1cc(NC(C)CCCNC(=O)c2cnc(-c3ncc(C(F)(F)F)cn3)cn2)c(C#N)c(=O)[nH]1 (stereo not drawn) [Example 35] |  |  | > 3000 | 30 to 100 | 10 to 30 |  | 
13 | CC(CCCNC(=O)c1cnn(-c2ncc(C(F)(F)F)cn2)c1)Nc1cn[nH]c(=O)c1C(F)(F)F (stereo not drawn) [Example 38] | < 10 | < 3 | > 3000 |  |  |  | 
14 | CC(CCCNC(=O)c1cc(-c2ncc(C(F)(F)F)cn2)on1)Nc1cn[nH]c(=O)c1C(F)(F)F (stereo not drawn) [Example 39] | < 10 | < 3 | 300 to 1000 |  |  |  | 
15 | CCOc1cnc(-c2ccc(C(=O)NCCCC(C)Nc3cn[nH]c(=O)c3C(F)(F)F)cc2)s1 (stereo not drawn) [Example 40] | 10 to 30 | < 3 | > 3000 |  |  |  | 
16 | C[C@@H](CCCNC(=O)c1ccc(-c2nccs2)cn1)Nc1cn[nH]c(=O)c1C(F)(F)F [Example 46] |  |  | > 3000 |  |  | 10 to 30 | 10 to 30
17 | CC(CCCN(C)C(=O)c1cnc(-c2ncc(C(F)(F)F)cn2)cn1)Nc1cn[nH]c(=O)c1C(F)(F)F (stereo not drawn) [Example 50] | 10 to 30 | < 3 | > 3000 |  |  |  | 
18 | CC(CCCNC(=O)c1cnc(-c2ncc(C(F)(F)F)cn2)cn1)Oc1cn[nH]c(=O)c1C(F)(F)F (stereo not drawn) [Example 51] | 30 to 100 | < 3 | < 300 |  |  |  | 
19 | CC(CCCNC(=O)c1cnc(-c2ncc(C(F)(F)F)cn2)cn1)Nc1cc[nH]c(=O)c1C#N (stereo not drawn) [Example 52] | 30 to 100 | 10 to 30 | > 3000 |  |  |  | 
20 | Cc1c(CCC(=O)Nc2ccc(-c3ncc(C(F)(F)F)cn3)cc2F)c[nH]c(=O)c1C(F)(F)F [Example 53] | 30 to 100 | 10 to 30 | > 3000 |  |  |  | 

Continued, in another order:

Row | IC50 [1, 4] [nM] | IC50 [2, 5] [nM] | IC50 [3] [nM] | Compound | IC50 [1] [nM] | IC50 [2] [nM] | IC50 ([1]; read-out: PARP7 binding inhibition IC50, TR-FRET, Biotin-labeled probe RBN011147) [nM] | IC50 ([2]; read-out: PARP7 activity inhibition IC50, Histone H1 coated plate, Biotin-Labeled NAD+, 2 h at room temperature, chemiluminescence) [nM]
21 | < 10 | < 3 | > 3000 | CC(CCCNC(=O)c1ccc(-c2ncc(N3CCOCC3)cn2)cc1)Nc1cn[nH]c(=O)c1C(F)(F)F (stereo not drawn) [Example 14] |  |  |  | 
22 | 10 to 30 | 3 to 10 | > 3000 | CC(CCCNC(=O)c1ccc(-c2ncc(N3CCOCC3)s2)cc1)Nc1cn[nH]c(=O)c1C(F)(F)F (stereo not drawn) [Example 15] |  |  |  | 
23 | 10 to 30 | 3 to 10 | > 3000 | CC(CCCNC(=O)c1ccc(-c2ncc(N3CC(F)C3)s2)cc1)Nc1cn[nH]c(=O)c1C(F)(F)F (stereo not drawn) [Example 16] |  |  |  | 
24 | < 10 | < 3 | 300 to 1000 | CC(CCCNC(=O)c1ccc(-c2cc(-c3cccnc3)sn2)cc1)Nc1cn[nH]c(=O)c1C(F)(F)F (stereo not drawn) [Example 18] |  |  |  | 
25 | < 10 | < 3 | 300 to 1000 | CC(CCCNC(=O)c1ccc(-c2ncc(C3CC3)s2)cc1)Nc1cn[nH]c(=O)c1C(F)(F)F (stereo not drawn) [Example 19] |  |  |  | 
26 | < 10 | < 3 | 1000 to 3000 | CC(CCCNC(=O)c1ccc(-c2ncc(N3CC(F)C3)cn2)cc1)Nc1cn[nH]c(=O)c1C(F)(F)F (stereo not drawn) [Example 20] |  |  |  | 
27 | < 10 | < 3 | 1000 to 3000 | COc1cnc(-c2ccc(C(=O)NCCCC(C)Nc3cn[nH]c(=O)c3C(F)(F)F)c(F)c2)s1 (stereo not drawn) [Example 21] |  |  |  | 
28 | 10 to 30 | < 3 | 300 to 1000 | CC(CCCNC(=O)c1ccc(-c2ncc(C(F)F)s2)cn1)Nc1cn[nH]c(=O)c1C(F)(F)F (stereo not drawn) [Example 23] |  |  |  | 
29 | < 10 | < 3 | 1000 to 3000 | CC(CCCNC(=O)c1cnc(-c2ncc(C(F)(F)F)s2)cn1)Nc1cn[nH]c(=O)c1C(F)(F)F (stereo not drawn) [Example 26] |  |  |  | 
30 | 10 to 30 | < 3 | > 3000 | CC(CCCNC(=O)c1ccc(-c2ncc(C(F)F)s2)cn1)Nc1cc[nH]c(=O)c1C(F)(F)F (stereo not drawn) [Example 29] |  |  |  | 
31 | 10 to 30 | < 3 | 300 to 1000 | CCCc1cnc(-c2ccc(C(=O)NCCCC(C)Nc3cn[nH]c(=O)c3C(F)(F)F)cc2)s1 (stereo not drawn) [Example 41] |  |  |  | 
32 | 30 to 100 | < 3 | > 3000 | CC#Cc1cnc(-c2ccc(C(=O)NCCCC(C)Nc3cn[nH]c(=O)c3C(F)(F)F)cc2)s1 (stereo not drawn) [Example 42] |  |  |  | 
33 | < 10 | < 3 | < 300 | CC(CCCNC(=O)c1ccc(-c2ncc(CC3CCCC3)s2)cc1)Nc1cn[nH]c(=O)c1C(F)(F)F (stereo not drawn) [Example 43] |  |  |  | 
34 | < 10 | < 3 | 1000 to 3000 | CC(CCCNC(=O)c1ccc(-c2ncc(CC3CC3)s2)cc1)Nc1cn[nH]c(=O)c1C(F)(F)F (stereo not drawn) [Example 44] |  |  |  | 
35 | 10 to 30 | 3 to 10 | > 3000 | CC(CCCNC(=O)c1ccc(-n2cccn2)nc1)Nc1cn[nH]c(=O)c1C(F)(F)F (stereo not drawn) [Example 45] |  |  |  | 
36 | 10 to 30 | 3 to 10 | > 3000 | CC(CCCNC(=O)c1ccc(-c2ncn(C)n2)cc1)Nc1cn[nH]c(=O)c1C(F)(F)F (stereo not drawn) [Example 47] |  |  |  | 
37 | 30 to 100 | 10 to 30 | > 3000 | CC(CCCNC(=O)c1ccc(-n2cncn2)c(F)c1)Nc1cn[nH]c(=O)c1C(F)(F)F (stereo not drawn) [Example 48] |  |  |  | 
